Series [1] concerns ovariectomized (OVX) rats. As to the kind of experiment: OVX rat study: ex vivo μCT analysis of tibial metaphysis and femur diaphysis. It counts as in vivo, Wistar rats. The procedure: (§1) A total of 264 Wistar female rats, ˜6 months old, were supplied by the Animal House at King Fahd Medical Research Center (KFMRC), KAU. Rats were housed in individual cages and maintained at 22° C. with a 12-h light/dark cycle. During the study period, rats were given standard rodent chow diet ad libitum (commercial rat cubes containing approximately 18% protein, 3% fat, 77% carbohydrate, and 2% of an inorganic-salt mixture with a vitamin supplement by weight, supplied by Grain Silos and Flour Mills Organization, Jeddah, Saudi Arabia) and water until the onset of intervention. Prior to surgery, rats were anesthetized with ketamine [(10% ketamine hydrochloride (80 mg/kg body weight), Cayman Chemical, Michigan, USA] and xylazine [(2% xylazine hydrochloride, 10 mg/kg body weight), Sigma-Aldrich Co., St. Louis, USA]. A single longitudinal skin incision was made on the dorsal midline at the level of the kidneys and both ovaries were ligated and removed to produce an ovariectomy in all OVX group animals. A SHAM-operated group, acting as a negative control for the effect of ovariectomy on bone parameters, underwent bilateral laparotomy, during which the ovaries were exposed but remained intact. […] The lycopene-supplemented groups were given lycopene (15, 30 and 45 mg/kg body weight per day) dissolved in corn oil by daily intra-gastric administration for the experimental period of 12 weeks. The SHAM, OVX and ALN control groups were given the same volume of corn oil without lycopene treatment. […] A 12-week randomized placebo-controlled study in order to examine the protective effects of lycopene supplementation on bone mass and fragility in OVX rats was concluded. Prior to surgery, body weight and bone mineral density (BMD) were obtained for all animals. Rats were randomized using a computer-generated randomization code into one of six groups: (1) sham-operated (SHAM; n=44); (2) ovariectomized control (OVX; n=44); (3) OVX lycopene-supplemented (15 mg/kg body weight per day) (n=44); (4) OVX lycopene-supplemented (30 mg/kg body weight per day) (n=44); (5) OVX lycopene-supplemented (45 mg/kg body weight per day) (n=44) and (6) OVX alendronate-treated (ALN) [2.0 μg/kg body weight per day subcutaneously (sc)] (n=44). Alendronate is an anti-resorptive agent for the treatment of osteoporosis and was used as a positive therapy control. […] All OVX groups were pair-fed with the SHAM group throughout the study to avoid the possible effects of ovariectomy-induced over-consumption and subsequent excessive weight gain. Treatment started 1 week after the surgery: this period of rest allowed the rats to recover from the stress associated with the surgery. In addition, after surgery, rats were administered Diclofenac sodium injection (20 mg/Kg body weight) to reduce the pain associated with the surgery. Rats were weighed and examined daily. Blood and urine samples were collected at baseline, during, and at the end of treatment for measurement of various BTMs and other analytes. In vivo dual energy x-ray absorptiometry (DXA) measurements were made for the bone mineral content (BMC) and BMD of the whole body, lumbar spine (L1-L4), and the right humerus, together with body composition at 12 weeks of treatment. One day following the post-test DXA assessments (at 12 weeks, 16 rats in each group), animals were euthanized by decapitation and right and left femurs were extracted for further biomechanical and histomorphometric analyses. Blood and urine samples were collected from all experimental groups to measure biochemical analytes and BTMs at baseline and 4, 8, and 12 weeks of treatment. Peripheral Quantitative CT (pQCT) scans were made of the proximal tibia metaphysis and the diaphysis. In vivo micro-computed tomographic (μCT) scans of the proximal tibia were obtained during the treatment period to monitor changes in bone mass and microarchitecture. […]

Series [2] relates to ovariectomized (OVX) rats. As to the kind of experiment: OVX rat study: in vivo DXA densitometry of lumbar spine and humerus. Further details: species or system Wistar rats. To be noted: 12 weeks, versus OVX control. As to the method: A total of 264 Wistar female rats, ˜6 months old, were supplied by the Animal House at King Fahd Medical Research Center (KFMRC), KAU. Rats were housed in individual cages and maintained at 22° C. with a 12-h light/dark cycle. During the study period, rats were given standard rodent chow diet ad libitum (commercial rat cubes containing approximately 18% protein, 3% fat, 77% carbohydrate, and 2% of an inorganic-salt mixture with a vitamin supplement by weight, supplied by Grain Silos and Flour Mills Organization, Jeddah, Saudi Arabia) and water until the onset of intervention. Prior to surgery, rats were anesthetized with ketamine [(10% ketamine hydrochloride (80 mg/kg body weight), Cayman Chemical, Michigan, USA] and xylazine [(2% xylazine hydrochloride, 10 mg/kg body weight), Sigma-Aldrich Co., St. Louis, USA]. A single longitudinal skin incision was made on the dorsal midline at the level of the kidneys and both ovaries were ligated and removed to produce an ovariectomy in all OVX group animals. A SHAM-operated group, acting as a negative control for the effect of ovariectomy on bone parameters, underwent bilateral laparotomy, during which the ovaries were exposed but remained intact. […] Peripheral Quantitative CT (pQCT) scans were made of the proximal tibia metaphysis and the diaphysis. […]

Series [3] relates to ovariectomized (OVX) rats. Briefly: OVX rat study: biochemical bone turnover markers. In kind it is in vivo, Wistar rats. As to the method: as §1, with “In addition, after surgery, rats were administered Diclofenac sodium injection (20 mg/Kg body weight) to reduce the pain associated with the surgery. Rats were weighed and examined daily. Blood and urine samples were collected at baseline, during, and at the end of treatment for measurement of various BTMs and other analytes. In vivo dual energy x-ray absorptiometry (DXA) measurements were made for the bone mineral content (BMC) and BMD of the whole body, lumbar spine (L1-L4), and the right humerus, together with body composition at 12 weeks of treatment. One day following the post-test DXA assessments (at 12 weeks, 16 rats in each group), animals were euthanized by decapitation and right and left femurs were extracted for further biomechanical and histomorphometric analyses. Blood and urine samples were collected from all experimental groups to measure biochemical analytes and BTMs at baseline and 4, 8, and 12 weeks of treatment.” left out, “diaphysis.” for “diaphysis. In vivo micro-computed tomographic (μCT) scans of the proximal tibia were obtained during the treatment period to monitor changes in bone mass and microarchitecture.”

Series [4] has as its system ovariectomized (OVX) rats. Briefly: OVX rat study: ex vivo pQCT and biomechanical testing of lumbar spine and femur. To be noted: 12 weeks. It counts as in vivo, Wistar rats. As to the method: as §1, with “One day following the post-test DXA assessments (at 12 weeks, 16 rats in each group), animals were euthanized by decapitation and right and left femurs were extracted for further biomechanical and histomorphometric analyses. Blood and urine samples were collected from all experimental groups to measure biochemical analytes and BTMs at baseline and 4, 8, and 12 weeks of treatment.” left out, “diaphysis.” for “diaphysis. In vivo micro-computed tomographic (μCT) scans of the proximal tibia were obtained during the treatment period to monitor changes in bone mass and microarchitecture.”

The test system of series [5] is ovariectomized (OVX) rats. Briefly: OVX rat study: body weight, uterine weight, body composition by DXA, organ findings. It counts as in vivo, Wistar rats. The following applies: 12 weeks; for decrease in fat mass (body composition by DXA): higher dosages of lycopene. As to the method: as §1
Series [6] concerns ovariectomized (OVX) rats. As to the kind of experiment: OVX rat study: serum minerals, enzymes and hormones. It counts as in vivo, Wistar rats. As to the method:
as §1, with “In addition, after surgery, rats were administered Diclofenac sodium injection (20 mg/Kg body weight) to reduce the pain associated with the surgery. Rats were weighed and examined daily. Blood and urine samples were collected at baseline, during, and at the end of treatment for measurement of various BTMs and other analytes. In vivo dual energy x-ray absorptiometry (DXA) measurements were made for the bone mineral content (BMC) and BMD of the whole body, lumbar spine (L1-L4), and the right humerus, together with body composition at 12 weeks of treatment. One day following the post-test DXA assessments (at 12 weeks, 16 rats in each group), animals were euthanized by decapitation and right and left femurs were extracted for further biomechanical and histomorphometric analyses. Blood and urine samples were collected from all experimental groups to measure biochemical analytes and BTMs at baseline and 4, 8, and 12 weeks of treatment.” left out, “diaphysis.” for “diaphysis. In vivo micro-computed tomographic (μCT) scans of the proximal tibia were obtained during the treatment period to monitor changes in bone mass and microarchitecture.”

Series [7] deals with ovariectomized (OVX) rats. Briefly: OVX rat study: plasma GPx, SOD, CAT activities and urinary 8-OHdG. In kind it is in vivo, Wistar rats.
Method: Prior to surgery, rats were anesthetized with ketamine [(10% ketamine hydrochloride (80 mg/kg body weight), Cayman Chemical, Michigan, USA] and xylazine [(2% xylazine hydrochloride, 10 mg/kg body weight), Sigma-Aldrich Co., St. Louis, USA]. A single longitudinal skin incision was made on the dorsal midline at the level of the kidneys and both ovaries were ligated and removed to produce an ovariectomy in all OVX group animals. A SHAM-operated group, acting as a negative control for the effect of ovariectomy on bone parameters, underwent bilateral laparotomy, during which the ovaries were exposed but remained intact. […] The lycopene-supplemented groups were given lycopene (15, 30 and 45 mg/kg body weight per day) dissolved in corn oil by daily intra-gastric administration for the experimental period of 12 weeks. The SHAM, OVX and ALN control groups were given the same volume of corn oil without lycopene treatment. […] Prior to surgery, body weight and bone mineral density (BMD) were obtained for all animals. […] Alendronate is an anti-resorptive agent for the treatment of osteoporosis and was used as a positive therapy control. […] All OVX groups were pair-fed with the SHAM group throughout the study to avoid the possible effects of ovariectomy-induced over-consumption and subsequent excessive weight gain. Treatment started 1 week after the surgery: this period of rest allowed the rats to recover from the stress associated with the surgery. In addition, after surgery, rats were administered Diclofenac sodium injection (20 mg/Kg body weight) to reduce the pain associated with the surgery. Rats were weighed and examined daily. Blood and urine samples were collected at baseline, during, and at the end of treatment for measurement of various BTMs and other analytes. […] Blood and urine samples were collected from all experimental groups to measure biochemical analytes and BTMs at baseline and 4, 8, and 12 weeks of treatment.
Setting [8] is: 12 weeks, lycopene, ALN 2.0 μg/kg/day, P<0.001.

For the compound `CC(C)=CCC/C(C)=C/C=C/C(C)=C/C=C/C(C)=C/C=C/C=C(C)/C=C/C=C(C)/C=C/C=C(\C)CCC=C(C)C` [lycopene], in series [1] (setting [8]), the “decrease in Tb.Sp, tibia metaphysis (μCT), compared with OVX group” value worked out at 46.8%; the “increase in BV/TV, tibia metaphysis (μCT), compared with OVX group” value stood at 123.9%; the “increase in Tb.N, tibia metaphysis (μCT), compared with OVX group” value is 52.8%. For the same compound, in series [1] (12 weeks, lycopene, P<0.001), the “increase in Tb.Th, tibia metaphysis (μCT), compared with OVX group” value amounted to 78.4%. Also, the “relative bone volume (BV/TV) of the femur diaphysis (μCT)” value in series [1] (OVX rats, 12 weeks) is on record as “nor lycopene or ALN treatment had significant effects”. Besides, the “femoral cortical values for Ct.Th and Ct.Po (μCT)” value in series [1] (lycopene 30 and 45 mg/kg/day, ALN, versus SHAM and OVX groups) is given as “improved”. The “OVX-induced bone loss (BMC and BMD, lumbar spine and humerus, DXA)” value in series [2] is listed as “significantly prevented”. For the same compound, the “s-CTX and u-DPD levels compared to OVX control” value in series [3] (lycopene 30 and 45 mg/kg per day, P<0.001) is “significantly decreased”. In addition, the “s-OC and s-PINP levels compared with OVX control” value in series [3] (lycopene 30 or 45 mg/kg per day, weeks 8 and 12, P<0.001) is on record as “significant decreases”. Moreover, the “OVX-induced decrease in cortical thickness” value in series [4] (lycopene particularly 45 mg/kg/day, alendronate 2.0 μg/kg/day) is “prevented the decrease”. For the same compound, the “lumbar spine biomechanical / bone strength parameters” value in series [4] (lycopene particularly 30 and 45 mg/kg/day, ALN 2.0 μg/kg/day, P<0.05) is listed as “improved”. In addition, in series [4] (lycopene, values comparable to SHAM), the “effects of OVX on bone strength parameters in the femur diaphysis” value was “prevented the negative effects”. For the same compound, the “decrease in fat mass (body composition by DXA)” value in series [5] (OVX rats, first value (presumably 30 mg/kg/day)) was determined as 8.9%. Also, the “decrease in fat mass (body composition by DXA)” value in series [5] (OVX rats, second value (presumably 45 mg/kg/day)) is listed as 16.4%. The “final body weight, body weight gain, or food intake” value in series [5] (OVX rats, lycopene 15, 30, 45 mg/kg/day oral) is “did not significantly influence”. Also, in series [5] (OVX rats, lycopene 30 and 45 mg/kg body weight per day), the “uterine weight compared to OVX alone” value is “significantly increased”. Also, in series [5] (OVX rats, lycopene treatment), the “OVX-induced body weight gain and fat accumulation” value is given as “prevented”. In series [5] (lycopene-treated OVX rats), the “degeneration or hypertrophy of internal organs, including muscle and bone” value is reported as “No degeneration or hypertrophy”. For the same compound, in series [6] (OVX lycopene-treated groups, dose-dependent, P<0.001), the “serum E2” value is “significantly increased”. In series [6] (OVX rats, lycopene treatment), the “elevated serum FSH and LH levels” value is reported as “attenuated”. Moreover, the “serum PTH values versus other groups” value in series [6] (OVX rats, lycopene 45 mg/kg/day, ALN 2.0 μg/kg/day sc, P<0.001) is on record as “significantly higher”. The “plasma GPx, CAT and SOD activities” value in series [7] (after lycopene treatment) was “increased”. Further, the “increase in plasma GPx activity compared to the OVX control” value in series [7] (lycopene 15-45 mg/kg/day, P<0.001) is 30.6-57.2%. Moreover, the “urinary 8-OHdG levels” value in series [7] (lycopene, dose-dependent manner, P<0.001) was “significantly decreased”.

(Values after patent US9956181B2, “Composition of nanoformulated lycopene and method of using the composition” (priority 2015, dated 2018).)
